Among the test systems are MCF7 breast; T-47D breast; MDA-MB-231 breast; NCI/ADR-RES ovarian; PC-3 prostate; DU-145 prostate.
Holding throughout (experiment): inhibition of tumour cell growth, NCI panel, 48 h

Several values for one entry are separate records, joined by “and”; a condition that tells them apart may be missing. Equal values may be shown once.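 Each compound was tested at five concentrations against cells in 96-well plates for 48 hours. GI50 marks 50% less growth. TGI: concentration producing complete growth inhibition.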

Take `Cc1nc(C(N)=S)sc1C(=O)C/C(=N/N)C(=O)Nc1cccc(Cl)c1C`: the TGI in the test on MCF7 breast, in the test with T-47D breast, in the test on MDA-MB-231 breast, in the test with NCI/ADR-RES ovarian and in the test on PC-3 prostate was above 100 µM throughout.

Turning to `CCOc1c(Cl)cc(CNC(C)C(O)c2ccccc2)cc1OC` (configuration not stated), the GI50 is 37.6 µM in the test on DU-145 prostate; 17.8 µM in the test on MCF7 breast; 16.5 µM with T-47D breast; 15.6 µM with MDA-MB-231 breast; 20.2 µM with NCI/ADR-RES ovarian; 30.7 µM in the test on PC-3 prostate. Further, the TGI in the test on DU-145 prostate is above 100 µM; in the test with MCF7 breast, 45.2 µM; in the test with T-47D breast, 46.5 µM; in the test with MDA-MB-231 breast it was 54.7 µM; in the test with NCI/ADR-RES ovarian, 59.1 µM; in the test on PC-3 prostate it was above 100 µM.

With `c1nnc(NCNc2nncs2)s1`, the TGI in the test with DU-145 prostate, in the test with MCF7 breast, in the test on T-47D breast, with MDA-MB-231 breast, in the test on NCI/ADR-RES ovarian and in the test with PC-3 prostate was above 100 µM in each case.

In the case of `c1cc(CNC2C3CCC(C3)C2c2c[nH]c3ccccc23)cc(CNC2C3CCC(C3)C2c2c[nH]c3ccccc23)c1` (configuration not stated), the TGI was 2.3 µM in the test on DU-145 prostate; 2.81 µM in the test on MDA-MB-231 breast; 2.6 µM and 1.99 µM in the test on NCI/ADR-RES ovarian; 2.7 µM in the test with PC-3 prostate. Further, the GI50 in the test on NCI/ADR-RES ovarian is 1.21 µM and 0.607 µM.

Turning to `COc1cc2nc(-c3ccc(C(F)(F)F)cc3)cc(OCCCN3CCCCC3)c2cc1OC`, the GI50 in the test on DU-145 prostate is 1.84 µM; in the test on MCF7 breast it was 1.16 µM; with T-47D breast, 0.454 µM; in the test on MDA-MB-231 breast it was 0.536 µM; in the test with NCI/ADR-RES ovarian it was 0.522 µM; in the test with PC-3 prostate it was 1.34 µM. In addition, the TGI with DU-145 prostate is 16.5 µM; in the test on MCF7 breast it was 4.39 µM; in the test on T-47D breast it was 22.4 µM; in the test with MDA-MB-231 breast it was 4.04 µM; with NCI/ADR-RES ovarian, 14.8 µM; in the test with PC-3 prostate it was 11.2 µM.

Take `NC(=O)c1ccc(C2C3=C(CCCC3=O)OC3=C2C(=O)c2ccccc2C3=O)cc1` (configuration not stated): the GI50 with DU-145 prostate is 0.465 µM; with MCF7 breast, 0.233 µM; in the test with T-47D breast it was 0.272 µM; in the test with MDA-MB-231 breast, 0.323 µM; with NCI/ADR-RES ovarian, 2.94 µM; in the test with PC-3 prostate, 0.285 µM. The TGI stood at 1.59 µM with DU-145 prostate; 0.824 µM in the test with MCF7 breast; 0.968 µM with T-47D breast; 1.54 µM with MDA-MB-231 breast; 22.5 µM in the test with NCI/ADR-RES ovarian; 1.86 µM in the test on PC-3 prostate.

For the molecule `Cc1cc(=O)oc2cc(O)c(CN(C)CC(=O)O)cc12`, the TGI in the test on DU-145 prostate, with MCF7 breast, in the test on T-47D breast, in the test on MDA-MB-231 breast, in the test on NCI/ADR-RES ovarian and in the test with PC-3 prostate was above 100 µM each time.

In the case of `Cc1cc(-c2nnc3n2CCCCC3)c(C)n1-c1ccc(Cl)c(Cl)c1`, the GI50 in the test on DU-145 prostate is 27.6 µM; in the test with MCF7 breast, 4.89 µM; with T-47D breast it was 6.03 µM; in the test on MDA-MB-231 breast, 15.2 µM; with NCI/ADR-RES ovarian, 11.9 µM; with PC-3 prostate, 11 µM. Besides, the TGI was above 100 µM with DU-145 prostate; 20.2 µM in the test on MCF7 breast; 30.8 µM with T-47D breast; 33.5 µM with MDA-MB-231 breast; 47.8 µM with NCI/ADR-RES ovarian; 57.1 µM in the test with PC-3 prostate.

As for `Cc1c2ccc(N(C)c3ccnc(Nc4cccc(S(N)(=O)=O)c4)n3)cc2nn1C`, the GI50 in the test with DU-145 prostate is 9.06 µM; in the test with MCF7 breast it was 8.95 µM; in the test with T-47D breast it was 5.27 µM; in the test with MDA-MB-231 breast, 8.47 µM; in the test with NCI/ADR-RES ovarian it was above 19.7 µM; in the test on PC-3 prostate, 9.23 µM. The TGI is above 25 µM in the test with DU-145 prostate; above 25 µM with MCF7 breast; 21.8 µM in the test on T-47D breast; above 25 µM with MDA-MB-231 breast; above 25 µM in the test with NCI/ADR-RES ovarian; above 25 µM in the test with PC-3 prostate.

`OCC1OC(n2cnc3c(/C=C(/O)c4ccccc4)ncnc32)C(O)C1O` (configuration not stated): the TGI in the test on DU-145 prostate is above 100 µM; in the test on MCF7 breast, above 100 µM; in the test with T-47D breast it was above 100 µM; with MDA-MB-231 breast, above 30 µM; in the test with NCI/ADR-RES ovarian it was above 92 µM; with PC-3 prostate it was above 62.4 µM.

On to `Cc1ccc(S(=O)(=O)N=Nc2c(O)[nH]c3c(Cl)cc(Cl)cc23)cc1`, for which the TGI in the test with MCF7 breast, in the test on MDA-MB-231 breast, in the test with NCI/ADR-RES ovarian and in the test on PC-3 prostate was above 100 µM in each case.

In the case of `CNC(=S)N/N=C/c1ccc([N+](=O)[O-])s1`, the TGI in the test on DU-145 prostate, with T-47D breast, in the test on MDA-MB-231 breast, in the test on NCI/ADR-RES ovarian and with PC-3 prostate was above 10 µM each time.

For `CC(=O)Nc1ccc(S(=O)(=O)NNC(=O)c2cccnc2Nc2ccc(Cl)cc2)cc1`, the GI50 in the test with DU-145 prostate is 34.3 µM; in the test with MCF7 breast, 4.34 µM; in the test with T-47D breast, 6.28 µM; in the test on MDA-MB-231 breast, 41.6 µM; in the test on PC-3 prostate it was 29.2 µM. Also, the TGI with DU-145 prostate, in the test with MCF7 breast, in the test on T-47D breast, in the test with MDA-MB-231 breast and with PC-3 prostate was above 100 µM throughout.

(Values after PubChem BioAssay (NCI).)
